For assay [1], the target named is dimethylarginine dimethylaminohydrolase-1 (DDAH-1) (Homo sapiens, UniProt O94760). In words: time-dependent inactivation kinetics in competition with ADMA. Type of assay: biochemical. The settings on record: read-out: Ki.
Assay [2] has as its target T1, human arginase-I (Mn-hArgI) (Homo sapiens, UniProt P05089).
T1 sequence (P05089 1-322): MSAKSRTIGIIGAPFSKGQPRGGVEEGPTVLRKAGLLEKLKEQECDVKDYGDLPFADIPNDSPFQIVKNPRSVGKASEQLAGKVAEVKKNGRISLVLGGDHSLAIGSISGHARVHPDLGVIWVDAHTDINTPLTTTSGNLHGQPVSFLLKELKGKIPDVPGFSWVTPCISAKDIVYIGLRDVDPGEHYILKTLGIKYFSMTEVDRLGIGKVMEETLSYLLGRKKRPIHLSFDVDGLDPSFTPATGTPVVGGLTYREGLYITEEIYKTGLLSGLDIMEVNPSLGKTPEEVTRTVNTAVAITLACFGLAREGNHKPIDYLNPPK
In words: urea formation assay, IC50 […] with Cheng-Prusoff Ki. The format is biochemical.

Sequence of dimethylarginine dimethylaminohydrolase-1 (DDAH-1) (O94760 whole entry): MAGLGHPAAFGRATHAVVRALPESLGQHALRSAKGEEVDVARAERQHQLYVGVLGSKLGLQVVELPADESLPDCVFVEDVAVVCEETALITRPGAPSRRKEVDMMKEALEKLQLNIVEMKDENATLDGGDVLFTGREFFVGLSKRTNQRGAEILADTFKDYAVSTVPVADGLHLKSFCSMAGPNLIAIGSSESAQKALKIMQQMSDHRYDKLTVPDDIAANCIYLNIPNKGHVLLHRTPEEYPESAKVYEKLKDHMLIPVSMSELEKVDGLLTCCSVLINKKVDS

As for `N=C(CCl)NCCC[C@H](N)C(=O)O` [Cl-NIO, N^5-(1-imino-2-chloroethyl)-L-ornithine], in assay [1], the KI (inactivation) worked out at 0.0013 ± 0.0006 mM. In assay [2], the Ki is 3.1 mM.

Source of the values: PMC4311893 (ChemMedChem, 2014).
